A word on the inhibition: it is the percentage by which the read-out fell short of the control.

The structures appear in SMILES notation. Read-outs that look alike come from different tables or passages of the source.

Assay [1] deals with Botrytis cinerea. The assay is described as follows: Grape juice test against Botrytis cinerea. The format is cell-based. The conditions noted are these: 10 ppm active substance. The procedure:
20 ml of a nutrient solution consisting of grape juice and distilled water in a weight ratio of 1:1 are poured into glass petri dishes and the active substances listed in Table 1 are added thereto in the concentrations indicated. Each test mixture is then inoculated with 50 μl of a suspension of Botrytis spores, prepared by washing the Botrytis spores from an agar culture with distilled water.
After incubation periods of 10 and 20 days, respectively, at 20° C., the extent of fungal development on the surface of the nutrient solution is assessed.
The effectiveness is calculated as a percentage, according to the following formula: [formula] […]

In assay [2] the test system is Fusarium nivale. The experiment in a line: Spore germination test, Fusarium nivale. The format is cell-based. The settings on record: Microdochium nivale; 500 ppm active substance; 48 hours at 20° C.; vs untreated control; read-out: Fungitoxicity against fungi spore, Fusarium nivale (effectiveness). The procedure: (§1) 50 μl of a solution or suspension containing 500 ppm of the active substance are introduced into the hollow of hollow-ground slides, together with 50 μl of a spore suspension prepared by washing the spores from an agar culture with a nutrient solution containing, per liter, 10 g of sugar, 1 g of glycol, 1 g of KH2 PO4 and 0.5 g of MgSO4.
(§2) The slides are kept at 20° C. for 48 hours in a petri dish, the base of which is covered with a moistened filter paper.
(§3) The ratio of germinated and ungerminated spores is then compared with an untreated control sample.
(§4) The effectiveness is calculated as a percentage according to the following formula: [formula]
(§5) The test set-up and procedure are the same as those described in Example 5.

The test system of assay [3] is Penicillium glaucum. The assay is described as follows: Spore germination test, Penicillium glaucum. The format is cell-based. The conditions noted are these: 500 ppm active substance, 48 hours at 20° C., vs untreated control, read-out: Fungitoxicity against fungi spore, Penicillium glaucum (effectiveness). As to the method: as §1, §2, §3, §4, §5
Assay [4] relates to Tilletia tritici. The assay is described as follows: Seed dressing test against wheat bunt (Tilletia tritici). The format is in vivo. The settings on record: Tilletia caries, read-out: % effectiveness (percentage germination inhibition). The procedure:
Healthy wheat seed is uniformly infected with spores of Tilletia tritici.The infected seed is subsequently dressed carefully with the active substances according to the invention, prepared in the form of dry dressings.
After being dressed, the wheat grains are placed in dishes of damp earth. Incubation takes place in a drying cupboard at from 14° to 17° C. After 48 hours, the spores adhering to the grains are removed by pressing the grains into loam/earth.
After incubation for a further eight days at from 14° to 17° C. in the drying cupboard, the ratio of germinated and ungerminated spores as, compared with an untreated control, is determined under a binocular microscope.
The action of the active substances according to the invention, is given as percentage germination inhibition. […]

In assay [5] the test system is Alternaria solani. The assay is described as follows: Spore germination test, Alternaria solani. The format is cell-based. The conditions noted are these: 500 ppm active substance, 48 hours at 20° C., vs untreated control, read-out: Fungitoxicity against fungi spore, Alternaria solani (effectiveness). As to the method:
as §1, §2, §3, §4, §5

In assay [6] the test system is Botrytis cinerea. The experiment in a line: Spore germination test, Botrytis cinerea. The format is cell-based. The settings on record: 500 ppm active substance, 48 hours at 20° C., vs untreated control, read-out: Fungitoxicity against fungi spore, Botrytis cinerea (effectiveness). The procedure:
as §1, §2, §3, §4, §5

Assay [7] has as its system Septoria nodorum. The assay is described as follows: Spore germination test, Septoria nodorum. The format is cell-based. The conditions noted are these: Parastagonospora nodorum; 500 ppm active substance; 48 hours at 20° C.; vs untreated control; read-out: Fungitoxicity against fungi spore, Septoria nodorum (effectiveness). As to the method:
as §1, §2, §3, §4, §5

[8] abbreviates: 240 h, 10 days at 20° C., read-out: % effectiveness after 10 days.
Setting [9] is: 480 h, 20 days at 20° C., read-out: % effectiveness after 20 days.

`CCC=CCSC1CC(=O)N(c2cc(Cl)cc(Cl)c2)C1=O` (centres unmarked) [2-(pent-2-en-1-ylmercapto)-succinic acid N--(3,5-dichlorophenyl)imide, reference compound]: the results for the inhibition of growth at 10 ppm in assay [1] (setting [8]) and in assay [1] (setting [9]) were 80% and 45%, respectively. In addition, the inhibition of growth at 500 ppm in assay [2] was determined as 20%; in assay [3], 10%; in assay [5], 20%; in assay [6], 20%; in assay [7], 10%. For the same compound, the inhibition at 100 ppm in assay [4] came to 40%.

As for `CC(=O)OC1CC(=O)N(c2cc(Cl)cc(Cl)c2)C1=O` (centres unmarked) [2-acetoxysuccinic acid N-(3,5-dichlorophenyl) imide], the inhibition of growth at 10 ppm in assay [1] (setting [8]) stood at 80%; in assay [1] (setting [9]), 70%. The inhibition of growth at 500 ppm in assay [2] turned out to be 100%; in assay [3] it was 100%; in assay [5] it was 100%; in assay [6] it was 100%; in assay [7] it was 70%. For the same compound, the inhibition at 100 ppm in assay [4] was determined as 100%.

As to `CCOC1CC(=O)N(c2cc(Cl)cc(Cl)c2)C1=O` (centres unmarked) [2-ethoxysuccinic acid N-(3,5-dichlorophenyl)imide], the inhibition of growth at 10 ppm in assay [1] (setting [8]) and in assay [1] (setting [9]) was 100% throughout. Also, the inhibition of growth at 500 ppm in assay [2] was 80%; in assay [3], 80%; in assay [5], 70%; in assay [6] it was 100%. Moreover, the inhibition at 100 ppm in assay [4] is 90%.

For the compound `CCCc1ccc(N2C(=O)CC(OC)C2=O)cc1` (centres unmarked) [2-methoxysuccinic acid N--(4-propylphenyl)imide], the inhibition at 100 ppm in assay [4] was determined as 80%.

In the case of `COCC1CC(=O)N(c2cccc(Cl)c2)C1=O` (centres unmarked) [2-methoxymethylsuccinic acid N-(3-chlorophenyl)imide], the inhibition of growth at 10 ppm in assay [1] (setting [8]) came to 90%; in assay [1] (setting [9]), 80%. Moreover, the inhibition at 100 ppm in assay [4] came out at 80%.

For `CC(C)OC1CC(=O)N(c2cc(Cl)cc(Cl)c2)C1=O` (centres unmarked) [2-isopropoxysuccinic acid N-(3,5-dichlorophenyl)imide], the inhibition of growth at 10 ppm in assay [1] (setting [8]) and in assay [1] (setting [9]) was 100% throughout. For the same compound, the inhibition of growth at 500 ppm in assay [2] was 50%; in assay [3] it was 100%; in assay [5], 70%; in assay [6], 100%; in assay [7], 50%. The inhibition at 100 ppm in assay [4] was found to be 100%.

On to `CC(C)NC(=O)N1CC(=O)N(c2cc(Cl)cc(Cl)c2)C1=O` [Rovral, 3-(3,5-dichlorophenyl)-1-isopropylcarbymoylhydantoin, reference compound], for which the inhibition of growth at 500 ppm is 0% in assay [2]; 60% in assay [3]; 0% in assay [5]; 100% in assay [6]; 30% in assay [7]. Moreover, in assay [4], the inhibition at 100 ppm was 75%.

Take `C=CCOC1CC(=O)N(c2cc(Cl)cc(Cl)c2)C1=O` (centres unmarked) [2-allyloxysuccinic acid N-(3,5-dichlorophenyl)imide]: the inhibition of growth at 10 ppm in assay [1] (setting [8]) and in assay [1] (setting [9]) was 80% throughout. Also, the inhibition of growth at 500 ppm came out at 70% in assay [2]; 80% in assay [3]; 80% in assay [5]; 100% in assay [6]; 80% in assay [7]. Further, the inhibition at 100 ppm in assay [4] stood at 100%.

As to `COC1CC(=O)N(c2cc(Cl)cc(Cl)c2)C1=O` (centres unmarked) [2-methoxysuccinic acid N-(3,5-dichlorophenyl) imide], the inhibition of growth at 10 ppm in assay [1] (setting [8]) and in assay [1] (setting [9]) was 100% throughout. Also, the inhibition of growth at 500 ppm in assay [2] came out at 90%; in assay [3], 80%; in assay [5] it was 90%; in assay [6] it was 100%. Further, the inhibition at 100 ppm in assay [4] is 95%.

With `C=CCN1C(=O)CC(OC(=O)C(C)C)C1=O` (centres unmarked) [2-isobutyroxysuccinic acid N--allylimide, 2-isobutyroxysuccinic acid N-allylimide], in assay [4], the inhibition at 100 ppm was found to be 80%.

For the compound `CCC(C)N1C(=O)CC(COC)C1=O` (centres unmarked) [2-methoxymethylsuccinic acid N-(but-2-yl)imide], the inhibition at 100 ppm in assay [4] came out at 80%.

Take `O=C1CC(C2C=CCCC2)C(=O)N1c1cc(Cl)cc(Cl)c1` (centres unmarked) [2-(cyclohex-2-en-1-yl)-succinic acid N--(3,5-dichlorophenyl)imide, reference compound]: the inhibition of growth at 10 ppm in assay [1] (setting [8]) and in assay [1] (setting [9]) was 0% in each case. Further, the inhibition of growth at 500 ppm stood at 0% in assay [2]; 0% in assay [3]; 30% in assay [5]; 25% in assay [6]; 30% in assay [7]. Moreover, the inhibition at 100 ppm in assay [4] came to 0%.

Turning to `COCC1CC(=O)N(c2cc(Cl)cc(Cl)c2)C1=O` (centres unmarked) [2-methoxymethylsuccinic acid N-(3,5-dichlorophenyl)imide], the inhibition of growth at 10 ppm in assay [1] (setting [8]) and in assay [1] (setting [9]) was 100% each time. The inhibition of growth at 500 ppm in assay [2] was found to be 100%; in assay [3], 100%; in assay [5], 100%; in assay [6], 100%; in assay [7], 70%. Also, in assay [4], the inhibition at 100 ppm turned out to be 100%.

These data come from US4460782A, “2-Ethoxymethyl and 2-methoxymethyl N-(3,5-dichlorophenyl) succinamides” (Consortium fur Elektrochemische Industrie GmbH, priority 1980, dated 1984).
